What is called inhibition is the change of the read-out against control, counted positive when it falls. Low readings indicate a response near the control, high ones a response far below the control. What is called AUC is concentration integrated over time.

For data set [1], the system named is plasma renin activity (PRA). The data set can be described thus: Plasma renin activity (PRA) after TD delivery in double transgenic rats. Particulars: Rattus norvegicus, dTG rats, 4 h after delivery. It is filed as in vivo.
Method: Pharmacokinetics and biomarkers—A blood sample (0.3 ml) was taken by tail bleed or jugular intravenous 4 h and 24 h after TD delivery to determine compound levels and plasma renin activity (PRA).
Data set [2] relates to female double transgenic (dtg) rats. In words: Mean arterial pressure by telemetry in double transgenic rats. In kind it is in vivo, rat. The settings on record: for max MAP decrease: versus control group. The method, then: Female double transgenic (dtg) rats, which are transgenic for human renin and angiotensin (see, e.g., Bohlender et al., J AM SOC NEPHROL 11:2056 (2000)) were used. All animals were maintained under identical conditions and had free access to normal pelleted rat chow and water. Rats were initially treated with enalapril (1 mg/kg/day), starting 3 weeks after birth and continuing for 2 months. After approximately two weeks following cessation of enalapril treatment, the double transgenic rats are hypertensive, with mean arterial blood pressures in the range of 160-170 mmHg.
Transmitter implantation—The rats were anesthetized using isoflurane (via inhalation, 2-3%) The pressure transmitter was implanted under aseptic conditions into the peritoneal cavity with the sensing catheter placed in the descending aorta below the renal arteries pointing upstream. The transmitter was sutured to the abdominal musculature, the skin closed, and the rats were individually housed in a cage, placed on a telemetry receiver pad to enable collection of the blood pressure data during recovery from anesthesia and thereafter. The rats were singly caged for the duration of the recording of telemetry data.
Telemetry-System—Telemetry units were obtained from Data Sciences (St. Paul, Minn.). […] The tip of the catheter was filled with a viscous gel that prevents blood reflux and was coated with an antithrombogenic film. The implants (length=2.5 cm, diameter=1.2 cm) weighed 9 g and have a typical battery life of 6 months. A receiver platform (model RPC-1 from Data Sciences) connected the radio signal to digitized input that was sent to a dedicated personal computer. Arterial pressures were calibrated by using an input from an ambient-pressure reference (APR-1, Data Sciences). Systolic, mean, and diastolic blood pressures were expressed in millimeter of mercury (mmHg).
Drug administration—For oral dosing, aliskiren was dissolved in 0.5% methocel and administered via feeding tubes. The compound was dosed in a single bolus of 3 mg/5 ml/kg or 30 mg/5 ml/kg. After dosing, the rat was returned to the cage. Blood pressure data were collected up to 7 days after oral dosing.
For transdermal delivery, aliskiren was dissolved in 100% DMSO to be applied in a single application of 250 μl of solution. The rat was lightly sedated under 2.5% isoflurane anesthesia, and its back was shaved over a 4 cm^2 area. The animal was returned to the cage to recover from anesthesia. Twenty-four hours later, the rat was lightly sedated under 2.5% isoflurane anesthesia, and the shaved area disinfected with 3 passes of ethanol.
After evaporation of the ethanol, a volume of 250 μl of 100% DMSO only, or of the compound dissolved in a 100% DMSO solution was applied over the shaved area using a micropipette. After complete evaporation of the DMSO solution (within 5 min after application), an occlusive transparent, waterproof film (OpSite) was taped to the back of the animal over the shaved area, and a jacket was fitted on the animal. Isoflurane inhalation was stopped, and the animal individually caged. Blood pressure data was collected up to 5 days after application of the compound/DMSO solution.
Hemodynamic measurements—For oral delivery, double transgenic rats with implanted pressure transmitters were dosed by oral gavage with a single bolus of vehicle (5 ml/kg) or of the test substance (30 mg/5 ml/kg) (n=6 per group).
For transdermal delivery, double transgenic rats with implanted pressure transmitters were dosed with a single application of vehicle (250 μl of 100% DMSO; n=4) or of the test substance (10 mg in 250 μl of 100% DMSO, i.e. 36 mg/kg; n=5).
The mean arterial blood pressure was continuously monitored. The effect of the test substance is expressed as maximal decrease of mean arterial pressure (MAP) in the treated group versus the control group. […]

The nature of data set [3]: Bioavailability of aliskiren after oral and transdermal administration in Sprague-Dawley rats (plasma LC-MS/MS). It is filed as in vivo, rat. Particulars: male SD rats; for AUC: Sprague-Dawley, rat, plasma. The method, then:
Male Sprague-Dawley rats (300-400 g body weight) were purchased from Charles River Canada Corporation (188 Rue LaSalle, St-Constant, QC, J5A 1Y2, Canada). […] For oral dosing, aliskiren was dissolved in 0.5% methocel and administered via feeding tubes. The compound was dosed in a single bolus of 3 mg/5 ml/kg or 25 mg/5 ml/kg. For intravenous (IV) […] dosing, aliskiren was dissolved in 60% PEG 200 and administered in a single bolus at 0.5 mg/1 ml/kg. For transdermal delivery, aliskiren was dissolved in 100% DMSO, and applied (single application of 250 μl of solution) onto the shaved skin of the rat. The rat was lightly sedated under 2.5% isoflurane anesthesia, and its back was shaved over a 4 cm^2 area. The animal was returned to its cage to recover from anesthesia. Twenty-four hours later, the rat was lightly sedated under 2.5% isoflurane anesthesia, and the shaved area was disinfected with three passes of ethanol. After evaporation of the ethanol, a volume of […] of 100% DMSO only, or of the compound dissolved in a 100% DMSO solution was applied over the shaved area using a micropipette. After complete evaporation of the DMSO solution (within 5 min after application), an occlusive transparent, waterproof film (OpSite) was taped to the back of the animal over the shaved area, and a jacket was fitted on the animal. Isoflurane inhalation was stopped, and the animal individually caged. The jacket was removed four hours after application of the compound solution.
A blood sample (0.4 ml) was taken by tail or jugular vein bleed for the determination of compound levels, 1 h, 2 h, 4 h, 6 h, 8 h, 10 h and 24 h after either oral gavage or application on the skin of the compound dissolved in 100% DMSO solution. The animal was euthanized after the 24 h time point. […] The plasma was separated by centrifugation and stored at −20° C. pending analysis. Plasma samples were analyzed for aliskiren concentrations using liquid chromatography coupled to mass spectrometry (LC-MS/MS).

Data set [4] can be described thus: AUC of aliskiren after PO or TD delivery in telemetrized female dTG rats. Particulars: for AUC(0-t): double transgenic (dTG, human renin and angiotensin), rat, read-out: AUC24 h. In kind it is in vivo, rat. The method, then:
The rat was lightly sedated under 2.5% isoflurane anesthesia, and its back was shaved over a 4 cm^2 area.
After complete evaporation of the DMSO solution (within 5 min after application), an occlusive transparent, waterproof film (OpSite) was taped to the back of the animal over the shaved area, and a jacket was fitted on the animal. Isoflurane inhalation was stopped, and the animal individually caged.

Setting [5] is: TD, 36 mg/kg single application.

Where two headings read alike, the source gives them in different places. A value given as a limit tells only on which side of the number the result lay.

`COCCCOc1cc(C[C@@H](C[C@H](N)[C@@H](O)C[C@H](C(=O)NCC(C)(C)C(N)=O)C(C)C)C(C)C)ccc1OC` [aliskiren, (2S,4S,5S,7S)-5-amino-N-(2-carbamoyl-2,2-dimethylethyl)-4-hydroxy-7-{[4-methoxy-3-(3-methoxypropoxy)phenyl]methyl}-8-methyl-2-(propan-2-yl)nonanamide]: in data set [1], the inhibition at 36 mg/kg came out at 97%. In addition, the ABC36 h in data set [2] (PO, 30 mg/kg single bolus) is on record as 630 mmHg * hr; in data set [2] (setting [5]) it was 1213 mmHg * hr. Also, the “duration (of MAP reduction)” value in data set [2] (PO, 30 mg/kg single bolus) was 1.5 days; in data set [2] (TD, 36 mg/kg single application, 36 mg/kg), greater than 3 days. Besides, the “max MAP decrease” value amounted to 40 mmHg in data set [2] (PO, 30 mg/kg single bolus) and 40 mmHg in data set [2] (setting [5]). Besides, the AUC is 0.084 µM·h in data set [3] (topical, TD, 2.9 mg/kg); 0.25 µM·h in data set [3] (topical, TD, 29 mg/kg); 0.0021 µM·h in data set [3] (PO, 3 mg/kg); 0.058 µM·h in data set [3] (PO, 25 mg/kg). Moreover, the F is 0.1% in data set [3] (PO, 3 mg/kg); 0.43% in data set [3] (PO, 25 mg/kg); 5.4% in data set [3] (TD, 2.9 mg/kg); 1.6% in data set [3] (TD, 29 mg/kg). The “increase of AUC, transdermal versus oral delivery” value in data set [4] (at the dose used (TD 36 mg/kg vs PO 30 mg/kg)) was 70 fold. For the same compound, the AUC(0-t) in data set [4] (blood, topical, TD, 36 mg/kg) was 1.5 µM·h; in data set [4] (in vivo, PO, 30 mg/kg), less than 0.021 µM·h.
